Experiments:
HCT116 cells = experiment: VX-970 dose response after siRNA silencing of BAF components; format: cell-based, human; settings: HCT116, 5 days exposure; p<0.0001 ANOVA
Procedure: FIG. 6. BAF complex deficiency causes sensitivity to ATR inhibition. A. Schematic of BAF complex composition in human cells. B. VX-970 dose response curves from HCT116 cells transfected with siRNA targeting ARID1B or SMARCA4. 48 hours after transfection cells were exposed to VX-970 for 5 days. Error bars represent SD from triplicate experiments. p<0.0001, ANOVA for siARID1B and siSMARCA4 vs. siCON. C. Western blots illustrating ARID1B and SMARCA4 silencing in experiment (B). D. VX-970 dose response curves from four OCCC cell lines, 3 SMARCA4 wildtype (blue; RMG1, KK and ES2) and 1 SMARCA4 mutant (red; TOV112D). E. Bar chart illustrating surviving fraction after five days VX-970 exposure in HCC1143 and He1a cells transfected with siRNA targeting either SMARCA4 or ARID1A *p<0.05 by Student's t-test compared to siCon. F. Western blot illustrating level of chromatin bound TOP2A in HCT116 cells transfected siRNA targeting ARID1A, ARID1B or SMARCA4. Cells were analysed 48 hours after transfection. G. A model for the proposed mechanism driving the sensitivity of ARID1A-deficient cells to ATRi. […]
Short-term survival assays were performed in 384-well plates. […] Drug was added 24 h after seeding and cells were continuously exposed to the drug for five days, after which cell viability was estimated using CellTitre-Glo luminescence (Promega). […] Colonies were counted manually. […]

[1] = tested on: HCT116 ARID1A+/+ xenografts; experiment: In vivo efficacy, HCT116 ARID1A+/+ subcutaneous xenografts; design: species or system mice
Procedure: FIG. 3. In vivo ARID1A/ATR synthetic lethality. A. Schematic of VX-970 therapy experiment in mice bearing established HCT116 ARID1A^+/+ and ARID1A^−/− xenografts. Cells were inoculated subcutaneously into nude mice and tumors allowed to establish for 10 days. Mice were then randomized to treatment regimens of either VX-970 (60 mg/kg, 4× weekly by oral gavage) or vehicle. Mice were then treated for a subsequent 40 days. Tumor volume was monitored twice weekly. B. Relative tumor volume plot from (A) showing efficacy of VX-970 and selectivity for ARID1A^−/− xenografts* p=0.024, ANOVA. C. Schematic of tumor incidence experiment in mice with non-established HCT116 ARID1A^+/+ and ARID1A^−/− xenografts. Mice were inoculated with cells as before, randomized and then treated with VX-970. VX-970 or vehicle treatment was initiated on the day of cell implantation. Tumor volume was monitored twice weekly and overall tumour incidence was assessed 40 days later. D. Bar chart of incidence 40 days after implantation of HCT116 ARID1A^+/+ and ARID1A^−/− cells. Each group contained 15 animals and fractions above bars indicate the number of animals in which a measurable xenograft formed. *p=0.027 Fisher's exact test. E and F. Tumor growth in experiment described in (C). *p=0.015 ANOVA. G. VX-970 dose response curves from TOV21G (ARID1A mutant) and RMG1 (ARID1A wildtype) cells. Cells were exposed to VX-970 for 5 days. […] PARP-1, cleaved PARP-1 (85 kDa fragment) and tubulin were detected by western blot. […] Caspase3/7 activity was assessed using Caspase-Glo and total cellular viability was estimated using CellTitre-Glo. Luminescence ratios for Caspase-Glo (i.e. apoptotic cells) and CellTitre-Glo (ie viable cells) was determined for each dose and normalized to DMSO treated samples. *Student's t-test, p<0.05. […]
In vivo efficacy studies were performed using HCT116 […], HCT116 ARID1A^−/− and TOV21G cells injected subcutaneously in the flank of female CD-1 Nude mice. […] Tumours were measured manually by calliper trice weekly and animals were sacrificed when tumours reached >15 mm in any direction.

SYO1 cells = experiment: DNA fibre analysis, replication fork speed in SYO1 cells; format: cell-based, human; settings: 0.1 μM for two hours; p<0.0001
Procedure: FIG. 10. ATR inhibitors elicit replication fork stress in SS tumour cells. […] Error bars represent SEM from triplicate experiments. p values were derived from Student's t tests. B. Western blot illustrating PARP1 cleavage in SYO1 cells exposed to VX970 for 24 hours. C. Western blot illustrating H2AX phosphorylation (γH2AX) in SYO1 cells exposed to VX970 (0.1 μM). D. Confocal microspcopy images illustrating H2AX phosphorylation in SYO1 cells exposed to VX970 (0.1 μM, 24 hours). E. Bar chart depicting data from (D). Error bars represent SEM from 100 images. p values were derived from Student's t tests. F. Replication fork speeds in SYO1 cells exposed to 0.1 μM VX970 for two hours. p value was derived from a Student's t test. G. Replication fork speeds in HCT116 cells exposed to 0.1 μM VX970 for two hours in the presence and absence of ectopic expression of a SS18-SSX1 fusion protein. p values were derived from Student's t tests. Expression of SS18-SSX1 or exposure to VX970 reduced fork speed. Combined SS18-SSX1 expression and VX970 exposure enhanced the reduction in fork speed. H and I. FACS plots from SYO1 cells exposed to VX970.
ATRi induced cytotoxicity in tumour cells derived from carcinomas is often associated with an increase in replication fork stress.

Q: For `CNCc1ccc(-c2cc(-c3nc(-c4ccc(S(=O)(=O)C(C)C)cc4)cnc3N)on2)cc1` [VX-970, 5-[4-(Isopropylsulfonyl)phenyl]-3-(3-{4-[(methylamino)methyl]phenyl}-1,2-oxazol-5-yl)-2-pyrazinamine], which “VX-970 sensitivity after silencing of SMARCA4, ARID1B or SMARCB1” value (HCT116 cells) is on record?
A: enhanced sensitivity

Q: What about the “growth of established ARID1A+/+ xenografts” value ([1]; 60 mg/kg, 4x weekly oral gavage, 40 days) of the same compound?
A: no effect

Q: What about the “growth of ARID1A+/+ xenografts under continued treatment” value ([1]; non-established xenograft experiment, p=0.63 ANOVA) of the same compound?
A: did not impair

Q: And the “incidence of ARID1A+/+ xenografts” value ([1]; treatment from day of cell implantation, incidence 40 days later, 15 animals per group)?
A: 80%

Q: And the replication fork speed (SYO1 cells)?
A: significant reduction in replication fork speed

Reference: US12233060B2, “Inhibitors of Ataxia-Telangiectasia Mutated and Rad3-related protein kinase (ATR) for use in methods of treating cancer” (THE INSTITUTE OF CANCER RESEARCH: ROYAL CANCER HOSPITAL, priority 2016, dated 2025)
